Laboratory results reported in the SangsterLogP compilation.

Experiment: method code SF, from DOI: 10.1515/bc.2003.056, PMID: 12715901

logP	Compound
0.43	CCCC1(C(=O)OC(C)(C)C)CCC=[N+]1[O-] (stereo unspecified)
0.18	CCC1(C(=O)OC(C)(C)C)CCC=[N+]1[O-] (stereo unspecified)
-0.18	CCC1(C(=O)OC(C)C)CCC=[N+]1[O-] (stereo unspecified)
0.46	CCCCOC(=O)C1(CC)CCC=[N+]1[O-] (stereo unspecified)
0.29	CCCC1(C(=O)OC(C)C)CCC=[N+]1[O-] (stereo unspecified)
-0.7	CC(C)OC(=O)C1(C)CCC=[N+]1[O-] (stereo unspecified)
-0.6	CCOC(=O)C1(CC)CCC=[N+]1[O-] (stereo unspecified)
0.42	CCCOC(=O)C1(CCC)CCC=[N+]1[O-] (stereo unspecified)
0.89	CCCCOC(=O)C1(CCC)CCC=[N+]1[O-] (stereo unspecified)
-0.11	CCCOC(=O)C1(CC)CCC=[N+]1[O-] (stereo unspecified)
0.28	CCC(C)OC(=O)C1(CC)CCC=[N+]1[O-] (stereo unspecified)
